Laboratory results taken from patent publication US12048742B2, “Hepatitis C virus peptide compositions and methods of use thereof” (The Governors of the University of Alberta, priority 2018, dated 2024).
Values joined by “and” are separate entries in the source; they are usually repeats but may differ in a detail not shown here. Identical values can stand only once. No end group written: not given here.

How the values were obtained:
[1] = Solubility of T-cell epitope polypeptides in E1E2 buffer (Protocol 1); type: physicochemical; settings: for solubility in E1E2 buffer (in words): Protocol 1, 1 mg/ml in E1E2 buffer, Nanodrop, FIG. 6, estimates based on A280 nm reading; for solubility: E1E2 buffer (10 mM sodium citrate, 250 mM NaCl, 1 mM EDTA, 0.1% TWEEN 80, pH 6.0), without adding dimethylsulfoxide, read-out: soluble in E1E2 buffer at a concentration of
Experimental: For example, the peptides TP35-NS3 and TP50C are soluble in E1E2 buffer at a concentration of at least 1 mg/ml. The peptides TP35-NS3 and TP50C are soluble in E1E2 buffer at a concentration of at least 1 mg/ml, without the need for adding dimethylsulfoxide (DMS). In some cases, a T-cell epitope polypeptide suitable for inclusion in a composition of the present disclosure is soluble in E1E2 buffer at a concentration of at least 25 μg/ml, at least 30 μg/ml, at least 35 µg/ml, at least 50 μg/ml, at least 75 μg/ml, at least 100 μg/ml, at least 250 μg/ml, at least 500 µg/ml, at least 750 μg/ml, or at least 1 mg/ml.
Protocol 1 The solubility of the T-cell epitope polypeptides in E1E2 buffer was determined. E1E2 buffer: 10 mM sodium citrate, 250 mM NaCl, 1 mM ethylenediaminetetraacetic acid (EDTA), 0.1% non-ionic detergent TWEEN® 80, pH 6.0. Lyophilized T-cell epitope polypeptides were individually added to E1E2 buffer at a final concentration of 1 mg T-cell epitope polypeptide per ml E1E2 buffer, to generate T-cell epitope polypeptide/E1E2 solutions. The T-cell epitope polypeptide/E1E2 solutions were vortexed for 3 seconds. The T-cell epitope polypeptide/E1E2 solutions were then centrifuged at 10,000×g for 30 seconds. […] After centrifugation, the concentration of peptides was measured using Nanodrop (Thermo Fisher).
Solubility values shown in FIG. 6 are estimates based on A280 nm reading.

[2] = TP42-2: […] MW= 4543 g/mol; EC= 3105 (secreted protein)
Experimental: Table printed on a drawing sheet, FIG. 27
Title: TP42-2: […] MW= 4543 g/mol; EC= 3105 (secreted protein)
The patent's description of the figure: FIG. 27 depicts solubility data for a TP33 T-cell epitope polypeptide (SEQ ID NO:279) and a TP42-2 T-cell epitope polypeptide (SEQ ID NO:291).
First reader's note: The sequence, MW and EC of TP42-2 are printed above the table; each row is one solution in which solubility was tested.

[3] = Solubility of reconstituted lyophilized peptides (Protocol 3); type: physicochemical; settings: Protocol 3, reconstituted in E1E2 buffer, E1E2 buffer without Tween, or water; shaking 2 h 30 min at room temperature; FIG. 13
Experimental: Protocol 3 TP42, TP45(Lys)3, and TP48 were lyophilized. The lyophilized peptides were reconstituted in: i) E1E2 buffer; or ii) E1E2 buffer without Tween; or iii) water. The reconstituted peptide solutions were vigorously vortexed for 20 seconds. After vortexing, the peptide solutions were incubated at room temperature with continuous shaking at 300 rpm for 2 hours 30 minutes. Afterwards, peptide solutions were centrifuged at 5000×g for 1 minute. After centrifugation, the concentration of the peptides in the supernatant was measured.

FIG. 6 = assay: FIG. 6
Excerpt: Table printed on a drawing sheet, FIG. 6
The patent's description of the figure: FIG. 6 provides the solubility of various T-cell epitope polypeptides in an aqueous buffer. TP35-NS3: SEQ ID NO:133; TP35-NS3(Lys)3: SEQ ID NO:302; TP42: SEQ ID NO:228; TP45 (C-terminal CNV replaced with KKK): SEQ ID NO:248; TP48: SEQ ID NO:254; TP48(Lys)3: SEQ ID NO:257; and TP50-C: SEQ ID NO:148.
First reader's note: Blanks inside the sequences only mark line breaks within the printed cell.

ILRRHVGPGEGAVQWMNRLIAFASRGNHVSPTHYVPESDASARVTQILKKK [TP48-(Lys)3]
solubility in E1E2 buffer (in words) [1]: good solubility

KSTKVPAAYAAQGYKVLVLNPSVAATLGFGAYMSKKKK [TP35-NS3-(Lys)3]
solubility in E1E2 buffer (in words) [1]: good solubility

KGGRHLIFCHSKKKCDELAAKLTGLGLNAVAYYRGLDVSVIP [TP42-2]
Solubility | Measured [2]: 415 µg/mL and 215 µg/mL and 233 µg/mL | Solubility | Percent (%) [2]: 83% and 43% and 47%

GTEGEIPFYGKAIPLEQIKGGRHLIFCHSKKKCDELAAKLTG [TP42] [listing 1 of 2 here]
visible precipitation in E1E2 buffer ([1]; Protocol 1, 1 mg peptide per ml E1E2 buffer, after vortexing and centrifugation at 10,000×g): precipitation was visible | solubility in E1E2 buffer (in words) [1]: much lower solubility | solubility (in words) [3]: good solubility

GVYLLPRRGPRLGVRATRKTSERSQPRGRRQPIPKARRSEGRSWAQPGYP [TP50-C]
solubility [1]: ≥ 1000 µg/mL | solubility in E1E2 buffer (in words) [1]: good solubility

CC[C@H](C)[C@H](NC(=O)[C@@H](NC(=O)[C@H](CO)NC(=O)[C@H](CC(=O)O)NC(=O)[C@H](Cc1ccccc1)NC(=O)[C@H](CC(=O)O)NC(=O)CNC(=O)[C@@H](NC(=O)[C@H](Cc1ccccc1)NC(=O)CNC(=O)[C@@H](NC(=O)[C@H](CCSC)NC(=O)[C@H](CC(C)C)NC(=O)[C@H](C)NC(=O)[C@H](CC(=O)O)NC(=O)[C@@H](NC(=O)[C@H](C)NC(=O)[C@@H](NC(=O)[C@@H](NC(=O)[C@@H](NC(=O)[C@@H](NC(=O)[C@H](CC(=O)O)NC(=O)CNC(=O)[C@H](CO)NC(=O)[C@@H](NC(=O)[C@@H]1CCCN1C(=O)[C@@H](NC(=O)[C@@H](NC(=O)[C@H](CO)NC(=O)[C@@H](NC(=O)[C@H](CC(=O)O)NC(=O)[C@H](CC(C)C)NC(=O)CNC(=O)[C@H](CCCNC(=N)N)NC(=O)[C@H](Cc1ccc(O)cc1)NC(=O)[C@H](Cc1ccc(O)cc1)NC(=O)[C@H](C)NC(=O)[C@@H](NC(=O)[C@H](C)NC(=O)[C@H](CC(N)=O)NC(=O)[C@@H](N)CC(C)C)C(C)C)C(C)C)C(C)C)[C@@H](C)CC)[C@@H](C)O)C(C)C)C(C)C)C(C)C)C(C)C)[C@@H](C)O)[C@@H](C)O)[C@@H](C)O)C(C)C)C(=O)N[C@@H](CC(=O)O)C(=O)N[C@@H](CCCCN)C(=O)N[C@@H](CCCCN)C(=O)N[C@@H](CCCCN)C(=O)O
solubility in E1E2 buffer (in words) [1]: much lower solubility

GTEGEIPFYGKAIPLEQIKGGRHLIFCHSKKKCDELAAKLTG [TP42] [listing 2 of 2 here]
Measured Concentration (FIG. 6): 0.079 mg/mL | Solubility (%) (FIG. 6): 12%

ILRRHVGPGEGAVQWMNRLIAFASRGNHVSPTHYVPESDASARVTQIL [TP48]
solubility (in words) [3]: good solubility

KSTKVPAAYAAQGYKVLVLNPSVAATLGFGAYMSK [TP35-NS3]
solubility [1]: ≥ 1000 µg/mL | solubility in E1E2 buffer (in words) [1]: good solubility
